From patent US7300927B2, “Method for treating or preventing Alzheimer's disease” (priority 1997, dated 2007)

Legend:
SH-Sy5y cells = assay: Neuritic sprouting and neuronal differentiation in SH-Sy5y cells; type: cell-based
Description: (§1) Neuritic sprouting and neuronal differentiation were induced in PNET2 and SH-Sy5y cells by insulin, PMA, or RA stimulation. […] Thus, expression of the immature or fetal forms of NTP are regulated by mechanisms and growth factors distinct from those involved in modulating expression of the 21 kD and 26 kD NTP molecules. Therefore, expression of fetal NTP molecules/genes can be mediated through the IRS-1 cascade, whereas expression of adult brain/AD-associated NTP genes can be regulated mainly through protein kinase C pathways.

PNET2 cells [1] = assay: Neuritic sprouting and neuronal differentiation in PNET2 cells; type: cell-based; details: for NTP species expression associated with neuritic growth/sprouting: PNET2 and SH-Sy5y cells (not separated); for neuritic sprouting and neuronal differentiation: PNET2 cells
Description: as §1

PNET1 cells = assay: Insulin responsiveness, NTP modulation and signal transduction in PNET1 cells; type: cell-based
Description: Insulin is an important mediator of growth and differentiation in CNS neurons.
Correspondingly, the insulin-stimulated association between PI3 kinase and phosphorylated IRS-1 was also impaired in PNET1 cells. In essence, impaired insulin-mediated tyrosyl phosphorylation of IRS-1 in PNET1 cells halted activation of the insulin signal transduction cascade, and subsequent events leading to modulated gene (NTP) expression. […] The results were confirmed by absent association between PI3 kinase and IRS-1-PY in PNET1 cells after insulin stimulation.

PNET2 cells [2] = assay: Insulin stimulated differentiation and NTP expression in PNET2 cells; type: cell-based
mice = details: 13 month old mice, administered directly to the brains; cited from earlier work

Compound	neuritic sprouting and neuronal differentiation (SH-Sy5y cells)	NTP species expression associated with neuritic growth/sprouting (PNET2 cells [1])	neuritic sprouting and neuronal differentiation (PNET2 cells [1])	induction of differentiation (PNET1 cells)	insulin modulation of NTP (PNET1 cells)	insulin receptor phosphorylation (PNET1 cells)	insulin-mediated tyrosyl phosphorylation of IRS-1 (PNET1 cells)	insulin-stimulated association between PI3 kinase and phosphorylated IRS-1 (PNET1 cells)	synthesis and steady state levels of all five NTP species (PNET2 cells [2]; following the transient increases)	levels of the 39 kD, 18 kD and 15 kD NTP species (PNET2 cells [2]; insulin stimulated differentiation)	phosphorylation of IRS-1, up-regulation of NTP, neuronal differentiation (PNET2 cells [2]; insulin stimulation)	animals showing a delay of about two months in any memory deficit (mice)	animals that never develop a memory deficit (mice)
Insulin: Insulin, an important mediator of growth and differentiation in CNS neurons	induced	increased expression of the fetal brain and PNET-dominant forms of NTP (15 kD and 18 kD)	induced	failure of insulin to induce differentiation	absent insulin modulation of NTP	normal insulin receptor phosphorylation	impaired	also impaired	sustained increases	rapid (within 10 minutes) but transient increases	responded to insulin stimulation with phosphorylation of IRS-1, up-regulation of NTP, and neuronal differentiation		
CC1=C(/C=C/C(C)=C/C=C/C(C)=C/C(=O)O)C(C)(C)CCC1 [RA]	induced	modulated expression of the 21 kD and 26 kD NTP species	induced										
O=C(CCn1cnc2c(=O)[nH]cnc21)Nc1ccc(C(=O)[O-])cc1.[K+] [AIT-082]												about 50%	50%
CCCCCCCCCCCCCC(=O)O[C@@H]1[C@@H](C)[C@@]2(O)[C@@H](C=C(CO)C[C@]3(O)C(=O)C(C)=C[C@@H]23)[C@@H]2C(C)(C)[C@]12OC(C)=O [PMA]	induced	modulated expression of the 21 kD and 26 kD NTP species	induced										
